This test concerns the target T1, Nav1.7 (or SCN9A) channel (Homo sapiens, UniProt Q15858).
T1 construct: expressed in transfected cells
Nature of the test: Nav1.7 (hSCN9A) electrophysiology assay, PatchXpress platform. The following applies: estimated IC50 from single point electrophysiology data, HEK cells stably expressing hSCN9A, held at V1/2 of inactivation, read-out: Nav1.7 EIC50. It counts as cell-based. The gist of the method: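 HEK cells stably expressing hSCN9A were recorded by whole-cell voltage clamp, including on PatchXpress, at 22–24°C with extracellular solution at pH 7.4. A 20 msec step to 0 mV followed an 8 s conditioning prepulse to the empirically determined inactivation V1/2. Inhibition was taken from current amplitude before vs after compound.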
T1 sequence (Q15858 whole entry): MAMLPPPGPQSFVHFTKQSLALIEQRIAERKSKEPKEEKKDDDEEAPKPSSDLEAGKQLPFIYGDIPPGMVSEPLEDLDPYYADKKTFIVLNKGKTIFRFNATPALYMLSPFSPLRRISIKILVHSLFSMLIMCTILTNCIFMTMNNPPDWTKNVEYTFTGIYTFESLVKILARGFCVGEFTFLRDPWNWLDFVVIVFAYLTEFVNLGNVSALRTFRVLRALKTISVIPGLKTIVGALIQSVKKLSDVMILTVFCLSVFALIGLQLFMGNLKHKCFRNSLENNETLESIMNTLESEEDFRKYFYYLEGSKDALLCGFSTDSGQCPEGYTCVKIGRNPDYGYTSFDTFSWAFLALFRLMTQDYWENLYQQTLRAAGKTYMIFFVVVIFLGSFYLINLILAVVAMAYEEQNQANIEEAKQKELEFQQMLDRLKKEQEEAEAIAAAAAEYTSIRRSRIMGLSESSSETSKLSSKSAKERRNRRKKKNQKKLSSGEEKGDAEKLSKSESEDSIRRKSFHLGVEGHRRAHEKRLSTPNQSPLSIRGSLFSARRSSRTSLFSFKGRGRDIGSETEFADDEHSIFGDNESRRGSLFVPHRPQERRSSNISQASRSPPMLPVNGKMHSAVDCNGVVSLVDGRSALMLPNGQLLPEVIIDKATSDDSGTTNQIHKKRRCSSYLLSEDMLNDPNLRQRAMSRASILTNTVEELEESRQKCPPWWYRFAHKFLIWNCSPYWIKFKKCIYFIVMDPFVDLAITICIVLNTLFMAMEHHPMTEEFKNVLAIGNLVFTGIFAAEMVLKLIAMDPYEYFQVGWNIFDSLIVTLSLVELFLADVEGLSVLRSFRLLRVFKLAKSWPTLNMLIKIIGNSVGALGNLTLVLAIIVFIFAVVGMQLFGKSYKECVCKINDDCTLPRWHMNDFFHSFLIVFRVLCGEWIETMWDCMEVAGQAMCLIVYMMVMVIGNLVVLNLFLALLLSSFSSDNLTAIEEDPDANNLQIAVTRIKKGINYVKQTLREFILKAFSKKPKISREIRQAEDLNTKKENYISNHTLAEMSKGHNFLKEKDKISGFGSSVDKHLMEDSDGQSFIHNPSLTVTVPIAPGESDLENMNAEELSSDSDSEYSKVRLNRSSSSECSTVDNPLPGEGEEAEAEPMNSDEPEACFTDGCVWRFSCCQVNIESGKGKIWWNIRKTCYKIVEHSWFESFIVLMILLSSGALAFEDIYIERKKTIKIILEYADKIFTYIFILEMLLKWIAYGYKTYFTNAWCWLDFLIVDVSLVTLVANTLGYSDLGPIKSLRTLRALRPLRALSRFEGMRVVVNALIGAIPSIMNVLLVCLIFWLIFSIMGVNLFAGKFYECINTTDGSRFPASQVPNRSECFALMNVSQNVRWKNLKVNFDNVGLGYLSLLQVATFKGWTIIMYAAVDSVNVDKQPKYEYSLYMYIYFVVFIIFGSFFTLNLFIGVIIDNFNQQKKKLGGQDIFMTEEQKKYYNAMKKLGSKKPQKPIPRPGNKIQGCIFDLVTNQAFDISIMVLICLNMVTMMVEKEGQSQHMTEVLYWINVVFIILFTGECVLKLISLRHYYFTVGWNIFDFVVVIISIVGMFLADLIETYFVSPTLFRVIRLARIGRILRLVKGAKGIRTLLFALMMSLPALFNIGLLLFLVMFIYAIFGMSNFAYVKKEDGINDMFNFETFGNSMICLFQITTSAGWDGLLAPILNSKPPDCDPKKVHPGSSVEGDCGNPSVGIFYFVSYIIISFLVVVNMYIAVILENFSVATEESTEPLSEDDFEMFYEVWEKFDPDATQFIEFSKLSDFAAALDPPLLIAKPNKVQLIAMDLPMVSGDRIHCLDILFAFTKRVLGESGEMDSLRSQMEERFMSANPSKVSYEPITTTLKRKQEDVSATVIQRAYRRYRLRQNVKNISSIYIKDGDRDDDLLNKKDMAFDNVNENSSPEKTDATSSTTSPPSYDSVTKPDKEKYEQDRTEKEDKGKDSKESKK
Consider `CC(C)c1cccc(OCc2cc(F)c(C(=O)NS(C)(=O)=O)cc2F)c1` [Example 107, 2,5-difluoro-4-[(3-isopropylphenoxy)methyl]-N-(methylsulfonyl)benzamide], for which the IC50 is 0.33 µM. The result for `CS(=O)(=O)NC(=O)c1cc(F)c(COc2cc(F)cc(C(F)(F)F)c2)cc1F` [Example 108, 2,5-difluoro-4-{[3-fluoro-5-(trifluoromethyl)phenoxy]methyl}-N-(methylsulfonyl)benzamide] reads 0.087 µM; that for `CS(=O)(=O)NC(=O)c1cc(F)c(COc2cccc(C(F)(F)F)c2)cc1F` [Example 109, 2,5-difluoro-N-(methylsulfonyl)-4-{[3-(trifluoromethyl)phenoxy]methyl}benzamide], 0.14 µM; that for `CS(=O)(=O)NC(=O)c1cc(F)c(COc2ccccc2F)cc1F` [Example 110, 2,5-difluoro-4-[(2-fluorophenoxy)methyl]-N-(methylsulfonyl)benzamide], 2.2 µM. The result for `CS(=O)(=O)NC(=O)c1cc(F)c(COc2cccc(F)c2F)cc1F` [Example 111, 4-[(2,3-difluorophenoxy)methyl]-2,5-difluoro-N-(methylsulfonyl)benzamide] reads greater than 1 µM. `CCc1ccccc1OCc1cc(F)c(C(=O)NS(C)(=O)=O)cc1F` [Example 112, 4-[(2-ethylphenoxy)methyl]-2,5-difluoro-N-(methylsulfonyl)benzamide]: the IC50 is 1.4 µM. The result for `CN1CCN(c2cccc(OCc3cc(F)c(C(=O)NS(C)(=O)=O)cc3F)c2)CC1` [Example 113, 2,5-difluoro-4-{[3-(4-methylpiperazin-1-yl)phenoxy]methyl}-N-(methylsulfonyl)benzamide] reads 11 µM. To `Cc1ccc(OCc2cc(F)c(C(=O)NS(C)(=O)=O)cc2F)cc1` [Example 115, 2,5-difluoro-4-[(4-methylphenoxy)methyl]-N-(methylsulfonyl)benzamide] belongs 0.62 µM; to `CS(=O)(=O)NC(=O)c1cc(F)c(COc2cccc(F)c2)cc1F` [Example 116, 2,5-difluoro-4-[(3-fluorophenoxy)methyl]-N-(methylsulfonyl)benzamide], 0.57 µM; to `CS(=O)(=O)NC(=O)c1cc(F)c(COc2ccccc2OC(F)(F)F)cc1F` [Example 117, 2,5-difluoro-N-(methylsulfonyl)-4-{[2-(trifluoromethoxy)phenoxy]methyl}benzamide], 2.2 µM. To `CS(=O)(=O)NC(=O)c1cc(F)c(COc2cc(F)cc(F)c2)cc1F` [Example 118, 4-[(3,5-difluorophenoxy)methyl]-2,5-difluoro-N-(methylsulfonyl)benzamide] belongs greater than 1 µM; to `Cc1cc(C)cc(OCc2cc(F)c(C(=O)NS(C)(=O)=O)cc2F)c1` [Example 119, 4-[(3,5-dimethylphenoxy)methyl]-2,5-difluoro-N-(methylsulfonyl)benzamide], 0.38 µM; to `Cc1ccc(OCc2cc(F)c(C(=O)NS(C)(=O)=O)cc2F)cc1C` [Example 120, 4-[(3,4-dimethylphenoxy)methyl]-2,5-difluoro-N-(methylsulfonyl)benzamide], 0.7 µM. Take `COc1ccc(Cl)c(OCc2cc(F)c(C(=O)NS(C)(=O)=O)cc2F)c1` [Example 122, 4-[(2-chloro-5-methoxyphenoxy)methyl]-2,5-difluoro-N-(methylsulfonyl)benzamide]: the IC50 was 2.2 µM. The result for `CS(=O)(=O)NC(=O)c1cc(F)c(COc2cc(C(F)(F)F)ccc2F)cc1F` [Example 123, 2,5-difluoro-4-{[2-fluoro-5-(trifluoromethyl)phenoxy]methyl}-N-(methylsulfonyl)benzamide] reads 0.85 µM; that for `CS(=O)(=O)NC(=O)c1cc(F)c(COc2cc(F)cc(Cl)c2)cc1F` [Example 124, 4-[(3-chloro-5-fluorophenoxy)methyl]-2,5-difluoro-N-(methylsulfonyl)benzamide], 0.18 µM; that for `CS(=O)(=O)NC(=O)c1cc(F)c(COc2ccc(F)c(C#N)c2)cc1F` [Example 125, 4-[(3-cyano-4-fluorophenoxy)methyl]-2,5-difluoro-N-(methylsulfonyl)benzamide], 1.4 µM. With `CS(=O)(=O)NC(=O)c1cc(F)c(COc2c(F)cccc2F)cc1F` [Example 126, 4-[(2,6-difluorophenoxy)methyl]-2,5-difluoro-N-(methylsulfonyl)benzamide], the IC50 was greater than 3 µM.

With `CS(=O)(=O)NC(=O)c1cc(F)c(COc2ccc(C#N)c(F)c2)cc1F` [Example 127, 4-[(4-cyano-3-fluorophenoxy)methyl]-2,5-difluoro-N-(methylsulfonyl)benzamide], the IC50 was 2.6 µM.

Regarding `COc1cc(F)cc(OCc2cc(F)c(C(=O)NS(C)(=O)=O)cc2F)c1` [Example 128, 2,5-difluoro-4-[(3-fluoro-5-methoxyphenoxy)methyl]-N-(methylsulfonyl)benzamide], the IC50 is 2.9 µM. The result for `CS(=O)(=O)NC(=O)c1cc(F)c(COc2ccc(F)c(F)c2Cl)cc1F` [Example 129, 4-[(2-chloro-3,4-difluorophenoxy)methyl]-2,5-difluoro-N-(methylsulfonyl)benzamide] reads 1.9 µM; that for `CS(=O)(=O)NC(=O)c1cc(F)c(COc2ccc3ccccc3c2)cc1F` [Example 130, 2,5-difluoro-N-(methylsulfonyl)-4-[(2-naphthyloxy)methyl]benzamide], 0.24 µM; that for `Cc1cc(Cl)c(OCc2cc(F)c(C(=O)NS(C)(=O)=O)cc2F)cc1C#N` [Example 131, 4-[(2-chloro-5-cyano-4-methylphenoxy)methyl]-2,5-difluoro-N-(methylsulfonyl)benzamide], greater than 1 µM. As to `COc1cc(C#N)ccc1OCc1cc(F)c(C(=O)NS(C)(=O)=O)cc1F` [Example 132, 4-[(4-cyano-2-methoxyphenoxy)methyl]-2,5-difluoro-N-(methylsulfonyl)benzamide], the IC50 was greater than 3 µM. `CS(=O)(=O)NC(=O)c1cc(F)c(COc2ccc(Cl)cc2F)cc1F` [Example 133, 4-[(4-chloro-2-fluorophenoxy)methyl]-2,5-difluoro-N-(methylsulfonyl)benzamide]: the IC50 is greater than 1 µM.

As for `CS(=O)(=O)NC(=O)c1cc(F)c(COc2cc(Cl)ccc2Cl)cc1F` [Example 134, 4-[(2,5-dichlorophenoxy)methyl]-2,5-difluoro-N-(methylsulfonyl)benzamide], the IC50 was 0.47 µM.

With `CS(=O)(=O)NC(=O)c1cc(F)c(COc2ccc(Cl)cc2C#N)cc1F` [Example 135, 4-[(4-chloro-2-cyanophenoxy)methyl]-2,5-difluoro-N-(methylsulfonyl)benzamide], the IC50 was greater than 3 µM. Consider `CS(=O)(=O)NC(=O)c1cc(F)c(COc2cccc(N3CCOCC3)c2)cc1F` [Example 136, 2,5-difluoro-N-(methylsulfonyl)-4-[(3-morpholin-4-ylphenoxy)methyl]benzamide], for which the IC50 was greater than 3 µM. The result for `CS(=O)(=O)NC(=O)c1cc(F)c(COc2ccccc2C#N)cc1F` [Example 137, 4-[(2-cyanophenoxy)methyl]-2,5-difluoro-N-(methylsulfonyl)benzamide] reads greater than 3 µM. To `CS(=O)(=O)NC(=O)c1cc(F)c(COc2ccc(-c3cocn3)cc2)cc1F` [Example 138, 2,5-difluoro-N-(methylsulfonyl)-4-{[4-(1,3-oxazol-4-yl)phenoxy]methyl}benzamide] belongs 4.2 µM. The result for `COc1cc(OCc2cc(F)c(C(=O)NS(C)(=O)=O)cc2F)ccc1-n1cccn1` [Example 139, 2,5-difluoro-4-{[3-methoxy-4-(1H-pyrazol-1-yl)phenoxy]methyl}-N-(methylsulfonyl)benzamide] reads greater than 3 µM; that for `CS(=O)(=O)NC(=O)c1cc(F)c(COc2c(F)ccc(F)c2F)cc1F` [Example 140, 2,5-difluoro-N-(methylsulfonyl)-4-[(2,3,6-trifluorophenoxy)methyl]benzamide], 2.2 µM. Take `CS(=O)(=O)NC(=O)c1cc(F)c(COc2ccc(C(F)(F)F)cc2)cc1F` [Example 141, 2,5-difluoro-N-(methylsulfonyl)-4-{[4-(trifluoromethyl)phenoxy]methyl}benzamide]: the IC50 was 0.33 µM. `CS(=O)(=O)NC(=O)c1cc(F)c(COc2ccc(F)c(C(F)(F)F)c2)cc1F` [Example 142, 2,5-difluoro-4-{[4-fluoro-3-(trifluoromethyl)phenoxy]methyl}-N-(methylsulfonyl)benzamide]: the IC50 was 0.6 µM.

With `CC(C)Oc1ccc(F)cc1OCc1cc(F)c(C(=O)NS(C)(=O)=O)cc1F` [Example 143, 2,5-difluoro-4-[(5-fluoro-2-isopropoxyphenoxy)methyl]-N-(methylsulfonyl)benzamide], the IC50 was 9.7 µM. The result for `CS(=O)(=O)NC(=O)c1cc(F)c(COc2ccc(OC(F)(F)F)cc2)cc1F` [Example 144, 2,5-difluoro-N-(methylsulfonyl)-4-{[4-(trifluoromethoxy)phenoxy]methyl}benzamide] reads 0.15 µM; that for `CS(=O)(=O)NC(=O)c1cc(F)c(COc2ccc(F)cc2C2CC2)cc1F` [Example 145, 4-[(2-cyclopropyl-4-fluorophenoxy)methyl]-2,5-difluoro-N-(methylsulfonyl)benzamide], 2.3 µM; that for `COc1ccc(OCc2cc(F)c(C(=O)NS(C)(=O)=O)cc2F)c(C#N)c1` [Example 146, 4-[(2-cyano-4-methoxyphenoxy)methyl]-2,5-difluoro-N-(methylsulfonyl)benzamide], greater than 1 µM. Consider `CC(C)c1ccc(OCc2cc(F)c(C(=O)NS(C)(=O)=O)cc2F)cc1` [Example 147, 2,5-difluoro-4-[(4-isopropylphenoxy)methyl]-N-(methylsulfonyl)benzamide], for which the IC50 is 0.17 µM.

Consider `CS(=O)(=O)NC(=O)c1cc(F)c(COc2ccc(Cl)cc2-c2ccno2)cc1F` [Example 148, 4-[(4-chloro-2-isoxazol-5-ylphenoxy)methyl]-2,5-difluoro-N-(methylsulfonyl)benzamide], for which the IC50 was greater than 1 µM.

Values taken from US9096500B2, “Acyl sulfonamide compounds” (Pfizer Limited, priority 2010, dated 2015).
